Data on twelve compounds can be found in publication PMC10979747 (Journal of the American Chemical Society, 2024).

The nature of data set [1]: Serum stability assay (LC/MS against internal standard). The conditions noted are these: for half-life at 10 µM: human, human serum diluted in TBS, pH 7.6.
The target in data set [2] is T1, TNIK (Homo sapiens, UniProt Q9UKE5). The data set can be described thus: Surface plasmon resonance, binding of thiopeptides to immobilized biotinylated TNIK (single-cycle, then multicycle kinetics). Details: Biotinylated TNIK (kinase domain, amino acids 1-314;); biotin (biotinylated protein); purchased Carna Biosciences (Kobe, Japan). The conditions noted are these: for KD / koff / kon / Kd: SPR kinetic data, binding to immobilized TNIK; for KD (binding affinity to TNIK): average from three multicycle kinetic experiments, 1:1 binding model, 25 °C; for Kd: read-out: KD. As for the experimental part: 2.8. Surface plasmon resonance
In the initial experiment, binding affinities between the thiopeptides and TNIK were measured with a Biacore T200 instrument (GE Healthcare) at 25 °C. The assay buffer contained 50 mM Tris (pH 7.5), 150 mM NaCl, 10 mM MgCl2, 0.01% (v/v) tween-20 and 0.1% (v/v) DMSO. For wTP3, the assay buffer additionally contained ATP (f.c.: 1 mM).
Biotinylated TNIK was immobilized on a Biacore CAP chip (GE Healthcare) to a surface density of 950-1200 response units following the standard immobilization protocols provided by the manufacturer. The interaction sensorgrams were measured as single-cycle kinetics performed with five concentrations of the ligand sequentially flown over the chip at a flow rate of 15 μL/min allowing for 20 or 30 s association and 70 or 60 s for dissociation between the steps. The final dissociation step was allowed to proceed for 180 s. […]
was repeated in triplicate on a Biacore 8K instrument (GE Healthcare) using a multi cycle kinetics format. The experimental details were as above, except ATP was not added to the buffer for wTP3. Kinetic parameters and affinities of the interaction were determined assuming the standard 1:1 binding model using the Biacore software (GE Healthcare).
Reported KD values were calculated from the average measured association and dissociation rates (Table S5).

A further data set relates to T2, trypsin.
T2 construct: purchased Thermo Fisher
Put plainly: Stability to agarose-immobilized trypsin (LC/MS). In kind it is in vitro ADME. The conditions noted are these: isolated enzyme trypsin, pH 7.9. The procedure: 2.10. Thiopeptide metabolic stability experiments
Stability to trypsin. To a solution of the analyte thiopeptide (15 µM) and the internal standard peptide (5 µM NH2-PEG5-wstndwdtnd-PEG5-CONH2;ref 16 lower case encoding is for D-amino acids; synthesized using the standard Fmoc SPPS techniques) in digestion buffer [50 mM tris, 100 mM NaCl, 10 mM EDTA, pH 7.9] was added agarose -immobilized TPCK-treated trypsin (Thermo Fisher; 1 µL of resin slurry; 100 µL final reaction volume ) that was previously washed with digestion buffer thrice. The mixture was agitated at 22 °C, and at various timepoints (0.5, 1, 2, 4, and 6 h) aliquots were withdrawn and quenched with 14 volumes of water/acetonitrile mixture [30: 70 (v/v) water: acetonitr ile with 0.1% (v/v) TFA]. […]

Data set [3] has as its target T1, TNIK. The data set can be described thus: ADP-Glo kinase inhibition assay. In kind it is biochemical. Details: Biotinylated TNIK (kinase domain, amino acids 1-314;); biotin (biotinylated protein); purchased Carna Biosciences (Kobe, Japan). The procedure: 2.9. Kinase inhibition assays with ADP-Glo
The ADP-Glo assay system was purchased from Promega. The kinase reaction buffer contained 50 mM Tris (pH 7.5), 10 mM MgCl2 and 0.01% (v/v) triton X-100. TNIK (1.25 nM) was incubated with various concentrations of analyte inhibitors in kinase reaction buffer at 25 °C for 10 min. After, the reactions were initiated by the addition of ATP and substrate […]
peptide (MSTtide, sequence: NH2-NKGYNTLRRKK-CONH2;ref 14 synthesized using the standard Fmoc SPPS techniques). The final mixtures containing 0.5 nM TNIK, 25 µM ATP, 15 µM MSTtide and variable concentration of the inhibitors were incubated at 25 °C for 30 min. The reactions were stopped by the addition of ADP -Glo reagent (1 volume), and the luminescent signal was developed following the manufacturer’s instructions. Luminesce was recorded on a Tecan M1000 PRO microplate reader (Tecan Group) with 1 s acquisition time and no signal attenuation. TNIK kinase activity was normalized to a no inhibitor control, and […]
values to the standard 4-parameter logistic curve model. […]

The nature of data set [4]: Stability to glutathione (LC/MS).
Method: Stability to glutathione. To a freshly prepared solution of glutathione (5 mM) in stability
buffer [50 mM HEPES (pH 7.5), 100 mM NaCl] was added a solution of analyte (1.5 mM
thiopeptide in DMSO; f. c.: 10 µM). The contents were mixed and transferred to a 37 °C
thermostat. At various time points (0.5, 1, 2, 4, 6, and 10 h) aliquots were withdrawn and
quenched with 2 volumes of methanol containing 30 mM iodoacetamide. The samples were
analyzed by LC/MS (0.3 µL; section 2.6) using method 3. Areas under the peak curve for all
thiopeptide-derived products in the sample (TIC chromatograms) were used to calculate
fractions of intact analyte. Thiopeptide half-life values were obtained from non-linear
regression (scipy)15 of experimentally measured values to the pseudo-first order
approximation for the reaction kinetics which can be used since [glutathione] >> [analyte].
Data set [5] concerns agarose-immobilized TPCK-treated trypsin (Thermo Fisher). Put plainly: agarose-immobilized TPCK-treated trypsin in digestion buffer [50 mM tris, 100 mM NaCl, 10 mM EDTA, pH 7.9]. The conditions noted are these: 22 °C, up to 6 h.
Setting [6] is: 0.5 nM TNIK, 25 µM ATP, 15 µM MSTtide, 4-parameter logistic fit, read-out: ADP-Glo IC50 against TNIK.

Like-named read-outs stand apart in the source and are kept apart here. Numbered stars: 1 amine (or outer) side, 2 acyl side, 3 side chain; on linkers, the order of the positions; unused ones are H or OH. Bridge positions count the residues as written; N and C are the ends. Square brackets hold non-standard residues; d marks the D form. Peptide text beside a SMILES is read from it. X1 = C=C(N[*:2])c1nc(-c2nc(-c3nc(C(=O)OC)cs3)ccc2C(=O)[*:1])cs1; NMePhe(4-NO2) = CN[C@@H](Cc1ccc([N+](=O)[O-])cc1)C(=O)O; LeuThz(4-CO) = CC(C)C[C@H](N[*:1])c1nc(C(=O)[*:2])cs1; ValThz = CC(C)[C@H](N[*:1])c1nc(C(=O)[*:2])cs1; Tic(7-OH) = O=C(O)[C@@H]1Cc2ccc(O)cc2CN1; X3 = C/C=C(\N[*:1])c1nc(C(=O)[*:2])cs1; Aad = N[C@@H](CCCC(=O)O)C(=O)O; Dhb = C/C=C(\N)C(=O)O; Dha = C=C(N)C(=O)O; Sar = CNCC(=O)O

T1 sequence (Q9UKE5 1-314): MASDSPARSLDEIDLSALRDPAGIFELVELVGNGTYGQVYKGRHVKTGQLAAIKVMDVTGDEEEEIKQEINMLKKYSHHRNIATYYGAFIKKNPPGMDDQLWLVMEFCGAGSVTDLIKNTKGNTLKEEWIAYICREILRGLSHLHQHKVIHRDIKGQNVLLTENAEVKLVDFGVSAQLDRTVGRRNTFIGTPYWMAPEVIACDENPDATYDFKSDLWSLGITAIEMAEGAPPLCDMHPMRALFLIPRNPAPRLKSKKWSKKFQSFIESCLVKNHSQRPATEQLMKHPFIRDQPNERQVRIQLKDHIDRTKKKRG

Turning to `C=C1NC(=O)C(=C)NC(=O)[C@H](CCCCN)NC(=O)[C@H](CC(C)C)NC(=O)[C@H]([C@@H](C)O)NC(=O)[C@H](CCCCN)NC(=O)[C@H](Cc2ccc(O)cc2)NC(=O)[C@H]([C@@H](C)CC)NC(=O)[C@H](Cc2ccccc2)NC(=O)CNC(=O)[C@H](Cc2c[nH]c3ccccc23)NC(=O)c2ccc(-c3nc(C(=O)OC)cs3)nc2-c2csc(n2)C(=C)NC(=O)CNC1=O` [TP1, reference compound] (WGFIYKTLK[Dha][Dha]G; linker N-C via X1), the half-life at 10 µM in data set [1] was 2.3 ± 0.1 h.

For `C=C1NC(=O)CN(C)C(=O)/C(=C/C)NC(=O)C(=C)NC(=O)[C@@H]2Cc3ccc(O)cc3CN2C(=O)[C@@H]2CCCN2C(=O)[C@H](CC(C)C)NC(=O)[C@H](Cc2c[nH]c3ccccc23)NC(=O)[C@H](Cc2c[nH]c3ccccc23)NC(=O)c2ccc(-c3nc(C(=O)OC)cs3)nc2-c2csc(n2)C(=C)NC(=O)c2csc(n2)/C(=C/C)NC(=O)/C(=C/C)NC1=O` [hTP4] (WWLP[Tic(7-OH)][Dha][Dhb][Sar][Dha][Dhb][X3]; linker N-C via X1), at TNIK [2], the KD result is given as “weak/no binding; fitting not conducted” and the “KD (binding affinity to TNIK)” value is given as “no measurable binding/inhibition”. In addition, in data set [1], the half-life at 10 µM was 18.7 ± 1.5 h. The same compound came in with a half-life at 15 µM with trypsin greater than 100 h. Further, the IC50 on TNIK [3] (setting [6]) is 24.9 ± 3.6 µM.

`C=C1NC(=O)[C@H](Cc2ccc([N+](=O)[O-])cc2)N(C)C(=O)CN(C)C(=O)CNC(=O)[C@H](Cc2c[nH]c3ccccc23)NC(=O)c2ccc(-c3nc(C(=O)OC)cs3)nc2-c2csc(n2)C(=C)NC(=O)c2csc(n2)[C@H](CC(C)C)NC(=O)[C@H](CO)NC(=O)[C@H](CCCNC(=N)N)NC(=O)[C@H](CC(N)=O)NC(=O)CN(C)C(=O)[C@H](CC(C)C)NC(=O)[C@H](CC(N)=O)NC1=O` [hTP6] (WG[Sar][NMePhe(4-NO2)][Dha]NL[Sar]NRS[LeuThz(4-CO)]; linker N-C via X1): at TNIK [2], the KD entry was “weak/no binding; fitting not conducted” and the “KD (binding affinity to TNIK)” value is listed as “no measurable binding/inhibition”. The “metabolic stability, τ1/2, serum” value in data set [1] (human serum, 37 °C, first-order decay fit) is “unstable”. The compound also gave a half-life at 10 µM in data set [1] of 3.6 ± 0.1 h. Besides, the half-life at 15 µM in the data set on trypsin is 1.01 ± 0.07 h. In addition, the IC50 at TNIK [3] (setting [6]) turned out to be 10.7 ± 1.1 µM.

Take `C=C1NC(=O)[C@@H]2Cc3ccc(O)cc3CN2C(=O)[C@H](CCCNC(=N)N)NC(=O)[C@H](CC(C)C)NC(=O)[C@H](Cc2ccc([N+](=O)[O-])cc2)N(C)C(=O)[C@H](CC(N)=O)NC(=O)[C@H](CC(C)C)NC(=O)[C@H](CCCNC(=N)N)NC(=O)[C@H](CCCC(N)=O)NC(=O)[C@H](C)NC(=O)[C@H](Cc2c[nH]c3ccccc23)NC(=O)c2ccc(-c3nc(C(=O)OC)cs3)nc2-c2csc(n2)C(=C)NC(=O)CNC1=O` [hTP13] (WA[Aad](NH2)RLN[NMePhe(4-NO2)]LR[Tic(7-OH)][Dha]G; linker N-C via X1): at TNIK [2], the koff turned out to be 0.0533 s⁻¹, the on-rate (kon) amounted to 648000 M⁻¹ s⁻¹ and the Kd was determined as 0.082 µM. Further, the half-life at 10 µM in data set [1] was 18.9 ± 1.5 h. This compound also gave a half-life at 15 µM in the data set on trypsin of 1.2 ± 0.1 h. The compound further showed a half-life at 10 µM in data set [4] (5 mM glutathione in HEPES buffer, pH 7.5) of 1.9 ± 0.1 h. Moreover, the “metabolic stability, τ1/2, glutathione” value in data set [4] (5 mM glutathione, pH 7.5, 37 °C) is “less than 2 h”. The IC50 at TNIK [3] (setting [6]) worked out at 2.7 ± 0.2 µM.

As to `C=C1NC(=O)[C@@H]2Cc3ccc(O)cc3CN2C(=O)CN(C)C(=O)/C(=C/C)NC(=O)CN(C)C(=O)[C@H](CCCC(N)=O)NC(=O)[C@H](Cc2c[nH]c3ccccc23)NC(=O)[C@H](Cc2c[nH]c3ccccc23)NC(=O)c2ccc(-c3nc(C(=O)OC)cs3)nc2-c2csc(n2)C(=C)NC(=O)CNC(=O)/C(=C/C)NC(=O)[C@H](Cc2ccc([N+](=O)[O-])cc2)N(C)C(=O)[C@H]([C@@H](C)O)NC(=O)C(=C)NC1=O` [wTP4] (WW[Aad](NH2)[Sar][Dhb][Sar][Tic(7-OH)][Dha][Dha]T[NMePhe(4-NO2)][Dhb]G; linker N-C via X1), at TNIK [2], the koff was determined as 0.000432 s⁻¹, the on-rate (kon) came to 42500 M⁻¹ s⁻¹ and the dissociation constant (Kd) is 0.0102 µM. For the same compound, the half-life at 10 µM in data set [1] was 14.3 ± 0.7 h. This compound also showed a half-life at 15 µM in the data set with trypsin greater than 100 h. Moreover, the “ADP-Glo IC50 against TNIK” value on TNIK [3] (0.5 nM TNIK, 25 µM ATP, 15 µM MSTtide, 4-parameter logistic fit) is listed as “sub-μM”. The half-maximal inhibitory concentration (IC50) at TNIK [3] (setting [6]) is 0.24 ± 0.03 µM.

`C=C1NC(=O)[C@H](CCCC(N)=O)NC(=O)[C@@H]2Cc3ccc(O)cc3CN2C(=O)[C@H](CC(N)=O)NC(=O)/C(=C/C)NC(=O)[C@H](Cc2ccc([N+](=O)[O-])cc2)N(C)C(=O)CN(C)C(=O)[C@H](C)NC(=O)[C@H](Cc2c[nH]c3ccccc23)NC(=O)c2ccc(-c3nc(C(=O)OC)cs3)nc2-c2csc(n2)C(=C)NC(=O)c2csc(n2)[C@H](C(C)C)NC(=O)C(=C)NC(=O)/C(=C/C)NC1=O` [wTP8] (WA[Sar][NMePhe(4-NO2)][Dhb]N[Tic(7-OH)][Aad](NH2)[Dha][Dhb][Dha][ValThz]; linker N-C via X1): on TNIK [2], the KD result is on record as “weak/no binding; fitting not conducted” and the “KD (binding affinity to TNIK)” value was “no measurable binding/inhibition”. The compound further showed a half-life at 10 µM in data set [1] of 34.9 ± 2.3 h. This compound also had a half-life at 15 µM in the data set with trypsin greater than 100 h. Moreover, the IC50 at TNIK [3] (setting [6]) amounted to 15.2 ± 1.5 µM.

With `C=C1NC(=O)[C@@H]2CCCN2C(=O)[C@H]([C@@H](C)O)NC(=O)CN(C)C(=O)CN(C)C(=O)CN(C)C(=O)[C@H](Cc2ccc([N+](=O)[O-])cc2)N(C)C(=O)[C@H](CC(N)=O)NC(=O)[C@@H]2Cc3ccc(O)cc3CN2C(=O)[C@H](Cc2ccc([N+](=O)[O-])cc2)N(C)C(=O)[C@H](CO)NC(=O)[C@H](CC(N)=O)NC(=O)[C@H]([C@@H](C)O)NC(=O)[C@H](Cc2c[nH]c3ccccc23)NC(=O)c2ccc(-c3nc(C(=O)OC)cs3)nc2-c2csc1n2` [wTP13] (WTNS[NMePhe(4-NO2)][Tic(7-OH)]N[NMePhe(4-NO2)][Sar][Sar][Sar]TP; linker N-C via X1), on TNIK [2], the KD entry is on record as “weak/no binding; fitting not conducted” and the “KD (binding affinity to TNIK)” value was “no measurable binding/inhibition”. Moreover, the half-life at 10 µM in data set [1] was 99.4 ± 13 h. Further, the half-life at 15 µM in the data set with trypsin (agarose-immobilized trypsin, 22 °C, read-out: metabolic stability, τ1/2, trypsin) was greater than 100 h. Further, the IC50 against TNIK [3] was found to be 9.6 ± 0.7 µM.

In the case of AgfTNyCSTSVC, the not cleaved result in data set [5] was “did not degrade (6 h); completely stable; τ1/2 >100 h”.

TNSfyNfgggTP: in data set [5], the not cleaved entry is “completely stable; τ1/2 >100 h”.

Regarding WCgSgySSTfSG, the not cleaved entry in data set [5] is recorded as “did not degrade (6 h); completely stable; τ1/2 >100 h”.

With WCgTgySSTfTG, the not cleaved entry in data set [5] is recorded as “did not degrade (6 h); completely stable; τ1/2 >100 h”.

Turning to WLPySTgSTTC, the not cleaved result in data set [5] was “did not degrade (6 h); τ1/2 > 100 h, no measurable degradation during the course of the experiment”.
